Some test systems named below: MDA-MB-435; NCI-H522 lung; 786-0 renal; SNB-19 CNS; SK-MEL-28 melanoma; MALME-3M melanoma; CCRF-CEM leukemia; COLO 205 colon; SF-295 CNS; A498 renal.
What all share (assay): NCI-60 cell line screen, 48 h

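In this assay, cells in 96-well plates receive the compound at five concentrations for 48 hours. Endpoints are linearly interpolated between the surrounding concentrations. TGI: total growth inhibition.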

`O=C(O)CC1C(=O)OC2C3COC(=O)c4cc(O)c(O)c(O)c4-c4c(cc(O)c(O)c4O)C(=O)OC2C(OC(=O)c2cc(O)c(O)c4c2C1C(O)C(=O)O4)C(OC(=O)c1cc(O)c(O)c(O)c1)O3` (stereo not given): the TGI in the assay on MDA-MB-435 is 83 µM; in the assay with NCI-H522 lung, 46.6 µM; in the assay on 786-0 renal, 56.5 µM; in the assay with SNB-19 CNS, greater than 100 µM; with SK-MEL-28 melanoma, greater than 100 µM; in the assay with MALME-3M melanoma, greater than 100 µM. Moreover, the TGI with CCRF-CEM leukemia was 37 µM; in the assay on COLO 205 colon, greater than 100 µM; in the assay with SF-295 CNS it was greater than 100 µM; with A498 renal it was greater than 100 µM.
Regarding `COc1cc(-c2ccc(Nc3ccccc3C(=O)O)c(OC)c2)ccc1Nc1ccccc1C(=O)O`, the TGI in the assay with MDA-MB-435 was 46 µM; with NCI-H522 lung it was 66.6 µM; with 786-0 renal, greater than 100 µM; in the assay on SNB-19 CNS, greater than 100 µM; in the assay with SK-MEL-28 melanoma, greater than 100 µM; in the assay on MALME-3M melanoma, greater than 100 µM. For the same compound, the TGI was 86.1 µM in the assay on CCRF-CEM leukemia, greater than 100 µM with COLO 205 colon, greater than 100 µM in the assay with SF-295 CNS and greater than 96.5 µM in the assay with A498 renal.
